These results are taken from article PMC11044139, “Comparative Study of Toxic Terpenoidal Aldehydes and Lactone Derivatives from the European Polypore Bondarzewia mesenterica” (ACS Omega, 2024).

Data set [1] deals with Rhodotorula glutinis (DSM 10134). As to the kind of experiment: Antimicrobial assay (MIC), R. glutinis. It counts as cell-based. The protocol:
(§1) The antimicrobial effects of the isolated compounds were determined using our established protocols.[19] Generally, an array of clinically relevant microorganisms consisting of bacteria, namely, S. aureus (DSM 346), A. baumanii (DSM 30008), B. subtilis (DSM 10), E. coli (DSM 1116), P. aeruginosa (PA14), C. violaceum (DSM 30191), and M. smegmatis (ATCC 700084), and fungi including M. hiemalis (DSM 2656), C. albicans (DSM 1665), R. glutinis (DSM 10134), S. pombe (DSM 70572), and P. anomala (DSM 6766), were used. […] The minimum inhibitory concentrations (MIC) were recorded after an overnight incubation as the lowest concentration under which no microbial growth was visualized. The microorganisms were obtained from the German Collection of Microorganisms and Cell Cultures (DSMZ, Braunschweig, Germany).

In data set [2] the test system is Acinetobacter baumanii (DSM 30008). As to the kind of experiment: Antimicrobial assay (MIC), A. baumanii. It counts as cell-based. Particulars: overnight incubation, n.i. = no inhibition up to 67 μg/mL. Here is the method: as §1
The subject of data set [3] is Schizosaccharomyces pombe (DSM 70572). Description: Antimicrobial assay (MIC), S. pombe. Format: cell-based. The protocol:
as §1

For data set [4], the system named is Mycobacterium smegmatis (ATCC 700084). As to the kind of experiment: Antimicrobial assay (MIC), M. smegmatis. It counts as cell-based. Here is the method:
as §1

The test system of data set [5] is Pseudomonas aeruginosa (PA14). As to the kind of experiment: Antimicrobial assay (MIC), P. aeruginosa. Format: cell-based. Particulars: overnight incubation, n.i. = no inhibition up to 67 μg/mL. Here is the method:
as §1

The subject of data set [6] is Pichia anomala (DSM 6766). As to the kind of experiment: Antimicrobial assay (MIC), P. anomala. It counts as cell-based. The protocol:
as §1

For a further data set, the system named is mouse fibroblast (L929). Description: Cytotoxicity (MTT) assay, L929. It counts as cell-based. Particulars: Mus musculus, n.a. = no activity. From the text: (§2) MTT (3-(4,5-dimethylthiayol-2-yl)-2,5-diphenyltetrazolium bromide)-based assay was used to determine in vitro cytotoxicity as previously reported.[24] The tested mammalian cell lines included mouse fibroblasts (L929), endocervical adenocarcinoma (KB3.1), human lung carcinoma (A549), breast adenocarcinoma (MCF-7), prostate carcinoma (PC-3), and epidermoid carcinoma cells (A431).

The subject of data set [7] is human endocervical adenocarcinoma (KB3.1). Description: Cytotoxicity (MTT) assay, KB3.1. It counts as cell-based. Particulars: Homo sapiens, KB 3-1, n.a. = no activity.
Excerpt: as §2

Data set [8] concerns Escherichia coli (DSM 1116). As to the kind of experiment: Antimicrobial assay (MIC), E. coli. Format: cell-based. Conditions: overnight incubation, n.i. = no inhibition up to 67 μg/mL. The protocol:
as §1

The test system of data set [9] is human breast adenocarcinoma (MCF-7). As to the kind of experiment: Cytotoxicity (MTT) assay, MCF-7. It counts as cell-based. Particulars: MCF7, MCF-7, read-out: IC50. An excerpt: (§3) MTT (3-(4,5-dimethylthiayol-2-yl)-2,5-diphenyltetrazolium bromide)-based assay was used to determine in vitro cytotoxicity as previously reported.[24] The tested mammalian cell lines included mouse fibroblasts (L929), endocervical adenocarcinoma (KB3.1), human lung carcinoma (A549), breast adenocarcinoma (MCF-7), prostate carcinoma (PC-3), and epidermoid carcinoma cells (A431). Epothilone B was used as a positive control.

On the set-up of data set [10]: method as in doi:10.1021/np50038a013. Conditions: previous report; cited from earlier work.
For data set [11], the system named is human lung carcinoma (A549). As to the kind of experiment: Cytotoxicity (MTT) assay, A549. Format: cell-based. Conditions: A549, read-out: IC50.
Excerpt: as §3

In data set [12] the test system is Candida albicans (DSM 1665). Description: Antimicrobial assay (MIC), C. albicans. It counts as cell-based. Here is the method: as §1
The test system of data set [13] is human ovarian cancer (SKOV-3). Description: Cytotoxicity (MTT) assay, SKOV-3. It counts as cell-based. Conditions: SK-OV-3, SKOV-3, read-out: IC50.
For data set [14], the system named is human epidermoid carcinoma (A431). As to the kind of experiment: Cytotoxicity (MTT) assay, A431. It counts as cell-based. Conditions: A-431, A431, read-out: IC50.
Excerpt: as §3

The subject of data set [15] is Mucor hiemalis (DSM 2656). Description: Antimicrobial assay (MIC), M. hiemalis. It counts as cell-based. The protocol: as §1
The subject of data set [16] is human prostate carcinoma (PC-3). As to the kind of experiment: Cytotoxicity (MTT) assay, PC-3. It counts as cell-based. Particulars: PC-3, read-out: IC50.
Excerpt: as §3

In data set [17] the test system is Bacillus subtilis (DSM 10). Description: Antimicrobial assay (MIC), B. subtilis. Format: cell-based. Here is the method:
as §1

In data set [18] the test system is Staphylococcus aureus (DSM 346). Description: Antimicrobial assay (MIC), S. aureus. Format: cell-based. The protocol:
as §1

The test system of data set [19] is Chromobacterium violaceum (DSM 30191). Description: Antimicrobial assay (MIC), C. violaceum. Format: cell-based. Particulars: overnight incubation, n.i. = no inhibition up to 67 μg/mL. Here is the method:
as §1

A further data set has as its system all tested cell lines. As to the kind of experiment: Cytotoxicity (MTT) assay, all tested cell lines. It counts as cell-based. Particulars: for pIC50: read-out: IC50 values, range against all tested cell lines.
Excerpt: as §3

Data set [20] deals with P. anomala, M. hiemalis, and Rhodotorula glutinis. Description: Antimicrobial assay (MIC), three fungi summarised in text. Format: cell-based. Conditions: range over three fungi. Here is the method: as §1
[21] abbreviates: DSM10134, overnight incubation, n.i. = no inhibition up to 67 μg/mL, read-out: MIC.
Where [22] appears, read: overnight incubation, n.i. = no inhibition up to 67 μg/mL.
[23] abbreviates: Mycobacterium smegmatis, overnight incubation, n.i. = no inhibition up to 67 μg/mL.
Where [24] appears, read: DSM2656, overnight incubation, n.i. = no inhibition up to 67 μg/mL, read-out: MIC.

pIC50: −log10 of the molar value. Converted amounts (≈) assume the structure as drawn. “And” between values parts separate entries of the source, which are not always exact repeats. Identical values can stand only once. Like-named read-outs stand apart in the source and are kept apart here.

As usually defined, the MIC is the least concentration at which growth counts as inhibited. As usually defined, the pIC50 is the negative decadic logarithm of the IC50, by convention in mol/L. Regarding `CC1(C)CC2C=C(C=O)[C@]3(C=O)C[C@]3(C)C2C1` (single isomer, unassigned; (+)) [Compound 8, (+)-isovelleral], the MIC is 16.6 µg/mL (≈ 71.5 µM) in data set [1] (DSM10134); “n.i” in [2]; 33.3 µg/mL (≈ 143 µM) in data set [3] (DSM70572); 33.3 µg/mL (≈ 143 µM) in data set [4] (Mycolicibacterium smegmatis, ATCC700084); “n.i” in data set [5]; 16.6 µg/mL (≈ 71.5 µM) in data set [6] (Hansenula anomala, DSM6766). The MIC result in data set [8] is “n.i”; in [12] (DSM1665), 33.3 µg/mL (≈ 143 µM); in data set [15] (DSM2656), 8.3 µg/mL (≈ 35.7 µM); in data set [17] (DSM10), 33.3 µg/mL (≈ 143 µM); in data set [18] (DSM346), 33.3 µg/mL (≈ 143 µM); in data set [19], “n.i”. Also, the pIC50 with mouse fibroblast (L929) was 4.99; in data set [7], 4.99; in [9], 5.55; in data set [11], 4.52; in [13], 5.28; in data set [14], 5.47. Also, the figures for the pIC50 (in data set [16]; with all tested cell lines) were 5.41 and 4.52 to 5.55, respectively. Further, the mutagenicity entry in [10] is “revealed mutagenicity”.

`CC(=O)O[C@@H]1CC2C3=C(C(C)C)CC[C@]3(C)CC[C@@]2(C)[C@@H](OC2OC[C@@H](O)[C@H](O)[C@H]2O)C=C1C=O` (stereo partly shown) [Compound 7, erinacine P]: the MIC was 16.6 µg/mL (≈ 33.7 µM) in [1] (setting [21]); “n.i” in data set [2]; “n.i” in [3] (setting [22]); “n.i” in data set [4] (setting [23]); “n.i” in data set [5]; “n.i” in data set [6] (Pichia anomala, overnight incubation, n.i. = no inhibition up to 67 μg/mL). Further, the minimum inhibitory concentration (MIC) entry in data set [8] was “n.i”; in data set [12] (setting [22]), “n.i”; in data set [15] (setting [24]) it was 66.6 µg/mL (≈ 135 µM); in data set [17] (DSM10, overnight incubation, n.i. = no inhibition up to 67 μg/mL, read-out: MIC), 33.3 µg/mL (≈ 67.6 µM); in [18] (DSM346, overnight incubation, n.i. = no inhibition up to 67 μg/mL, read-out: MIC) it was 66.6 µg/mL (≈ 135 µM); in [19] it was “n.i”. The pIC50 with mouse fibroblast (L929) is 4.89; in data set [7], 5.29; in data set [9] it was 5.48; in data set [11], 4.85; in data set [13] it was 5.11; in data set [14] it was 5.46. The negative logarithm of the IC50 (pIC50) is 5.31 in [16]; 4.85 to 5.48 and 4.85 to 5.46 in the data set with all tested cell lines (range over all tested cell lines).

For the molecule `CC(C)=CCc1cc(C=O)ccc1O` [Compound 9, 4-hydroxy-3(3-methylbut-2-enyl)benzaldehyde], the MIC in [1] (setting [21]) was 66.6 µg/mL (≈ 350 µM); in data set [2], “n.i”; in data set [3] (setting [22]), “n.i”; in [4] (setting [23]), “n.i”; in [5] it was “n.i”; in [6] (Hansenula anomala, DSM6766, Pichia anomala, overnight incubation, n.i. = no inhibition up to 67 μg/mL, read-out: MIC), 33.3 µg/mL (≈ 175 µM). For the same molecule, the MIC entry in data set [8] is “n.i”; in data set [12] (setting [22]) it was “n.i”; in [15] (setting [24]) it was 66.6 µg/mL (≈ 350 µM); in [17] (setting [22]), “n.i”; in [18] (setting [22]), “n.i”; in data set [19], “n.i”. Moreover, the “MIC values, range against P. anomala, M. hiemalis, and Rhodotorula glutinis” value in data set [20] lay in the range of 33.3 to 66.6 µg/mL. The “cytotoxic effects (in words)” value with all tested cell lines (tested cell lines) is “no apparent cytotoxic effects”.
